Like-named read-outs stand apart in the source and are kept apart here.
Tests used:
[1] = Phase I 14-day twice-daily pharmacokinetics; conditions: for concentration at 12 h: C12h
Experimental: Methods: The study was a Phase I, single-center, randomized, parallel-group, multiple-dose, placebo-controlled, pharmacodynamic, pharmacokinetic and safety study in healthy volunteers. To obtain 24 enrolled subjects, screening procedures and inclusion/exclusion criteria were evaluated for 54 subjects during a variable screening period of up to 28 days. Once enrolled, subjects were randomized to either CX157 10 mg, 20 mg or 40 mg or matching placebo administered twice daily for 14 consecutive days.
Formulations: Each natural/transparent Licaps® size 0 hard gelatin capsule contains 10 mg CX157 in Labrasol™; each capsule is banded with a green gelatin band comprised of gelatin NF and polysorbate-80 NF. CX157 Liquid Filled Capsules are packaged in white, opaque, high density polyethylene (HDPE) bottles with screw-top polypropylene child resistant caps. Each bottle contains 30 capsules. CX157 Liquid Filled Capsules, 5 and 10 mg are stored long-term at controlled room temperature conditions [15-30° C. (59-86° F.)].

[2] = Phase I modified release tablets BID pharmacokinetics; format: in vivo, human; conditions: for Cmax / AUC / concentration at 7 day: human, plasma, oral, 125 mg
Experimental: Methods: A total of 20 Subjects (16 on CX157 and 4 on placebo) were dosed with CX157 Modified Release Tablets, 125 mg BID (total daily dose of 250 mg) or placebo in Period 1 for 7 days. […] Subjects who were randomized to CX157 125 mg BID in Period 1 received CX157 175 mg BID in Period 2, after a washout of 7 days. Subjects randomized to placebo in Period 1 received placebo in Period 2, after a washout of 7 days. Blood samples for PK analysis were collected during both periods of the study.
Each oval, biconvex CX157 Film Coated Tablet, 125 mg has a white opaque film coating (Advantia™ Prime) and is stored long-term at controlled room temperature conditions [25° C. (77° F.); excursions 15-30° C. (59-86° F.)].
Each CX157 Modified Release Tablet, 175 mg is stored long-term at controlled room temperature conditions [25° C. (77° F.), excursions 15-30° C. (59-86° F.)]; the tablets are a modified caplet shape, pale pink in color, and plain on both sides.

[3] = healthy volunteers, 10 mg twice daily, Day 1, mean
[4] = healthy volunteers, 10 mg twice daily, Day 14, mean
[5] = healthy volunteers, 20 mg twice daily, Day 1, mean
[6] = healthy volunteers, 20 mg twice daily, Day 14, mean
[7] = healthy volunteers, 40 mg twice daily, Day 1, mean
[8] = healthy volunteers, 40 mg twice daily, Day 14, mean, N = 4
[9] = human, plasma, oral, 10 mg, healthy volunteers, 10 mg twice daily, Day 1, mean
[10] = human, plasma, oral, 10 mg, healthy volunteers, 10 mg twice daily, Day 14, mean
[11] = human, plasma, oral, 20 mg, healthy volunteers, 20 mg twice daily, Day 1, mean
[12] = human, plasma, oral, 20 mg, healthy volunteers, 20 mg twice daily, Day 14, mean
[13] = human, plasma, oral, 40 mg, healthy volunteers, 40 mg twice daily, Day 1, mean
[14] = human, plasma, oral, 40 mg, healthy volunteers, 40 mg twice daily, Day 14, mean, N = 4

## O=S1(=O)c2ccc(F)cc2Oc2cc(OCC(F)(F)F)ccc21 [CX157, 3-fluoro-7(2,2,2-trifluorethoxy)phenoxathiine-10,10-dioxide]
[1]; [3]
  AUC0-12h/Dose: 380
  Cmax/Cmin: 31.4 ratio
  Cmax/Dose: 137
  Tmin: 10.7 h
[1]; [4]
  AUC0-12h/Dose: 753
  CSS: 8.1 ng/mL
  Cmax/Cmin: 6.64 ratio
  Cmax/Dose: 185
  Tmin: 12 h
[1]; [5]
  AUC0-12h/Dose: 312
  Cmax/Cmin: 36.7 ratio
  Cmax/Dose: 128
  Cmin: 1.13 ng/mL
  Tmin: 12 h
[1]; [6]
  AUC0-12h/Dose: 400
  Cmax/Cmin: 10.8 ratio
  Cmax/Dose: 104
  Cmin: 3.05 ng/mL
  Tmin: 12 h
[1]; healthy volunteers, 20 mg twice daily, Day 14, mean, N = 2
  % AUCextrap: 19.0c %
[1]; [7]
  AUC0-12h/Dose: 363
  Cmax/Cmin: 28.2 ratio
  Cmax/Dose: 136
  Cmin: 2.52 ng/mL
  Tmin: 12 h
[1]; [8]
  % AUCextrap: 16.5%
  AUC0-12h/Dose: 687
  CSS: 29.6 ng/mL
  Cmax/Cmin: 15.6 ratio
  Cmax/Dose: 320
  Cmin: 8.8 ng/mL
  Tmin: 12 h
[1]; human, plasma, oral
  half-life: 33.3 to 35.3 h
[1]; human, plasma, oral, 10 mg, AUC0-12h, healthy volunteers, 10 mg twice daily, Day 1, mean
  AUC(0-t): 50 ng·h/mL
[1]; human, plasma, oral, 10 mg, AUC0-12h, healthy volunteers, 10 mg twice daily, Day 14, mean
  AUC(0-t): 97 ng·h/mL
[1]; human, plasma, oral, 10 mg, AUClast, healthy volunteers, 10 mg twice daily, Day 14, mean
  AUC(0-t): 180 ng·h/mL
[1]; [9]
  concentration at 12 h: 0.63 ng/mL
  Cmax: 18.1 ng/mL
[1]; [10]
  concentration at 12 h: 3 ng/mL
  Cmax: 24.2 ng/mL
[1]; human, plasma, oral, 10 mg, Cmin, healthy volunteers, 10 mg twice daily, Day 1, mean
  concentration at 1 day: 0.6 ng/mL
[1]; human, plasma, oral, 10 mg, Cmin, healthy volunteers, 10 mg twice daily, Day 14, mean
  concentration at 14 day: 3 ng/mL
[1]; human, plasma, oral, 10 mg, healthy volunteers, 10 mg twice daily, Day 1, median
  Tmax: 1 h
[1]; human, plasma, oral, 10 mg, healthy volunteers, 10 mg twice daily, Day 14, median
  Tmax: 1 h
[1]; human, plasma, oral, 20 mg
  AUC(0-inf): 433 ng·h/mL
  half-life: 33.3 h
[1]; human, plasma, oral, 20 mg, AUC0-12h, healthy volunteers, 20 mg twice daily, Day 1, mean
  AUC(0-t): 83.5 ng·h/mL
[1]; human, plasma, oral, 20 mg, AUC0-12h, healthy volunteers, 20 mg twice daily, Day 14, mean
  AUC(0-t): 115 ng·h/mL
[1]; human, plasma, oral, 20 mg, AUClast, healthy volunteers, 20 mg twice daily, Day 14, mean
  AUC(0-t): 191 ng·h/mL
[1]; [11]
  concentration at 12 h: 1.13 ng/mL
  Cmax: 32.3 ng/mL
[1]; [12]
  concentration at 12 h: 3.05 ng/mL
  Cmax: 30.1 ng/mL
[1]; human, plasma, oral, 20 mg, CSS, healthy volunteers, 20 mg twice daily, Day 14, mean
  concentration at 14 day: 9.6 ng/mL
[1]; human, plasma, oral, 20 mg, healthy volunteers, 20 mg twice daily, Day 1, median
  Tmax: 1.25 h
[1]; human, plasma, oral, 20 mg, healthy volunteers, 20 mg twice daily, Day 14, median
  Tmax: 1.5 h
[1]; human, plasma, oral, 40 mg
  AUC(0-inf): 712 ng·h/mL
  half-life: 35.3 h
[1]; human, plasma, oral, 40 mg, AUC0-12h, healthy volunteers, 40 mg twice daily, Day 1, mean
  AUC(0-t): 186 ng·h/mL
[1]; human, plasma, oral, 40 mg, AUC0-12h, healthy volunteers, 40 mg twice daily, Day 14, mean, N = 4
  AUC(0-t): 355 ng·h/mL
[1]; human, plasma, oral, 40 mg, AUClast, healthy volunteers, 40 mg twice daily, Day 14, mean, N = 4
  AUC(0-t): 602 ng·h/mL
[1]; [13]
  concentration at 12 h: 2.52 ng/mL
  Cmax: 69.5 ng/mL
[1]; [14]
  concentration at 12 h: 8.8 ng/mL
  Cmax: 166 ± 179 ng/mL
[1]; human, plasma, oral, 40 mg, CSS, healthy volunteers, 40 mg twice daily, Day 14, mean, N = 4
  concentration at 14 day: 29.6 ± 19.6 ng/mL
[1]; human, plasma, oral, 40 mg, healthy volunteers, 40 mg twice daily, Day 1, median
  Tmax: 1.08 h
[1]; human, plasma, oral, 40 mg, healthy volunteers, 40 mg twice daily, Day 14, median, N = 4
  Tmax: 0.5 h
[1]; human, plasma, oral, 40 mg, mean AUC0-12h, 40 mg twice daily, Day 14
  AUC(0-t): 355 ± 235 ng·h/mL
[2]; 125 mg BID, Day 7
  fluctuation in CX157 concentrations during each 12-h dosing interval at steady state: 4.6 fold
[2]; BID dosing with 125 mg MR tablets
  accumulation, Day 7 versus Day 1 exposures: 2.6 fold
[2]; 125 mg BID, Day 1, read-out: mean Cmax
  Cmax: 134 ± 103 ng/mL
[2]; 12-hour AUC, 125 mg BID, Day 1
  AUC: 702 ± 500 ng·h/mL
[2]; MR tablets 125 mg BID, Day 7, mean, read-out: AUCSS
  AUC: 1280 ± 651 ng·h/mL
[2]; MR tablets 125 mg BID, Day 7, mean, read-out: CSS
  concentration at 7 day: 107 ± 54 ng/mL
[2]; MR tablets 125 mg BID, Day 7, mean, read-out: Cmax
  Cmax: 231 ± 114 ng/mL
[2]; MR tablets 125 mg BID, Day 7, mean, read-out: Cmin
  concentration at 7 day: 54.9 ± 32 ng/mL

Source: patent publication US12263155B2, “Combinations of monoamine oxidase inhibitors and serotonin receptor agonists and their therapeutic use” (Remedi, Inc., priority 2022, dated 2025)
